These are literature values, as cited in US20240230688A1, “METHOD FOR DETERMINING PERSONALIZED OMEGA-3 DOSE” (SOCIETE DES PRODUITS NESTLE S.A., priority 2021, published 2024).

In this data set the test system is pregnant women. The note with it: women who took supplement during pregnancy compared to those who did not.

The structures appear in SMILES notation.

For the molecule `CC/C=C\C/C=C\C/C=C\C/C=C\C/C=C\C/C=C\CCC(=O)O` [DHA supplement, (4Z,7Z,10Z, 13Z, 16Z, 19Z)-4,7,10,13,16, 19-Docosahexaenoic acid], the “less likely to have early preterm birth” value is given as 42%.
